Measured values as given in patent US10526327B2, “Histone demethylase inhibitors” (CELGENE QUANTICEL RESEARCH, INC., priority 2013, dated 2020).

How the values were obtained:
JMJD2C = target: T1, JMJD2C (Homo sapiens, UniProt Q9H3R0); assay: JMJD2C in vitro enzyme inhibition assay (TR-FRET); type: biochemical
T1 construct: purchased BPS Bioscience 50105
T1 sequence (Q9H3R0 2-372): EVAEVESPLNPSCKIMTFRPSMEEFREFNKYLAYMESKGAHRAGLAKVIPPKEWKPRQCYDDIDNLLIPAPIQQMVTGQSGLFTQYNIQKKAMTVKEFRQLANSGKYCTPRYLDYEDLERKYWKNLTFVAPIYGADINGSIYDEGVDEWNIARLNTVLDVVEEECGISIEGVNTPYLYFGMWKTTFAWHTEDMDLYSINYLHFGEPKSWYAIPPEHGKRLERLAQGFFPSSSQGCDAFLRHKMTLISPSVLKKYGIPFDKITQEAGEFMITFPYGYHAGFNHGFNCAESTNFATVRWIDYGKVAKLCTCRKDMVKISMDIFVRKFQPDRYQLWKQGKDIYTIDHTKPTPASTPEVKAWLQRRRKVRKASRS
Method in brief: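 Baculovirus-expressed human JMJD2C (AA 2-372) at 0.3 nM demethylated 300 nM biotin-H3K9me3 peptide with 2 μM alpha-ketoglutarate in HEPES pH 7.3 containing ascorbate and Fe(II), 30 min at room temperature. EDTA-stopped product was read by TR-FRET with Eu-anti-H3K9me2 and streptavidin-APC; 665/615 ratios from 11-point dilutions gave IC50.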

Jarid1B = target: T2, Jarid1B (Homo sapiens, UniProt Q9UGL1); assay: Jarid1B in vitro enzyme inhibition assay (TR-FRET); type: biochemical
T2 construct: purchased BPS Bioscience or custom made by MolecularThroughput 50121
T2 sequence (Q9UGL1 2-751): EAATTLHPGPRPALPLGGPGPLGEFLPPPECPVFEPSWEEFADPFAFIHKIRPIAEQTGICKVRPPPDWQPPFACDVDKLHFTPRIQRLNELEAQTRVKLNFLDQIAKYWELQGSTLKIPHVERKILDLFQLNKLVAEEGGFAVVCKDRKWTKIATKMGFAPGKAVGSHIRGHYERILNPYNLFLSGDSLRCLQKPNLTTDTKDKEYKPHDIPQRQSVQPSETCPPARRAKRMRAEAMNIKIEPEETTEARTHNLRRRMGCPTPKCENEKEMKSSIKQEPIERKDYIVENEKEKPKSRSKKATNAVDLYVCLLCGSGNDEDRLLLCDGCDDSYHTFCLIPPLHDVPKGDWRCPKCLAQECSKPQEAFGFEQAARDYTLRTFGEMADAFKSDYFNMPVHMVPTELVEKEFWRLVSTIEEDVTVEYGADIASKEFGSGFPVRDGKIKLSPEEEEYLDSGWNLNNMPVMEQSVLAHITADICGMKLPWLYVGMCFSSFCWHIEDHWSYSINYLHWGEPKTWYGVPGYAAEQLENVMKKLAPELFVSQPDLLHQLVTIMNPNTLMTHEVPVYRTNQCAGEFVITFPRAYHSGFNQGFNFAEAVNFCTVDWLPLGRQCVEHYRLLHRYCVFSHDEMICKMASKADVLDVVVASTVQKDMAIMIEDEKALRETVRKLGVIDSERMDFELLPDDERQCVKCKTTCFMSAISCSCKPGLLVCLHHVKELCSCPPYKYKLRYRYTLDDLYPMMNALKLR
Method in brief: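 Jarid1B (AA 2-751, baculovirus-expressed) at 0.8 nM with 300 nM biotin-H3K4me3 peptide and 2 μM α-ketoglutarate in HEPES pH 7.3 with ascorbate and Fe(II), 30 min at room temperature. Stopped with EDTA; H3K4me1-2 product detected by TR-FRET (665/615 ratio) and IC50 fitted from 11-point dilutions.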

Row | IC50 (JMJD2C) [µM] | IC50 (Jarid1B) [µM] | SMILES
1 | ≤ 0.1 | ≤ 0.1 | Cn1cnc(-c2nccc3c(O)nc(OCC4CCOC4)nc23)c1 (centres unmarked) [Example 103, 8-(1-methyl-1H-imidazol-4-yl)-2-(oxolan-3-ylmethoxy)pyrido[3,4-d]pyrimidin-4-ol]
2 | ≤ 0.1 | ≤ 0.1 | Cn1cnc(-c2nccc3c(O)nc(OCc4cccc(F)c4)nc23)c1 [Example 104, 2-[(3-fluorophenyl)methoxy]-8-(1-methyl-1H-imidazol-4-yl)pyrido[3,4-d]pyrimidin-4-ol]
3 | ≤ 0.1 | ≤ 0.1 | Cn1cnc(-c2nccc3c(O)nc(OCc4ccccc4Cl)nc23)c1 [Example 105, 2-[(2-chlorophenyl)methoxy]-8-(1-methyl-1H-imidazol-4-yl)pyrido[3,4-d]pyrimidin-4-ol]
4 | 0.1 to 1 | ≤ 0.1 | Cn1cnc(-c2nccc3c(O)nc(OCc4cccc(Cl)c4Cl)nc23)c1 [Example 106, 2-[(2,3-dichlorophenyl)methoxy]-8-(1-methyl-1H-imidazol-4-yl)pyrido[3,4-d]pyrimidin-4-ol]
